What was measured:
[1] = general statement, no data; cited from earlier work
[2] = serum androgen and pituitary hormone levels during treatment; format: in vivo, Frauen; conditions: 50 mg/Tag oral
Experimental: (§1) Die folgenden Untersuchungen wurden an vier gegenüber Insulin resistenten Frauen durchgeführt, welche ein Hyperandrogenämie litten. Das Alter der Frauen lag zwischen 16 und 33 Jahren und ihr Körpermasseindex (Body mass Index - BMI) reichte von 28 bis 41. Die Hyperandrogenämie wurde durch Bestimmung von LH, FSH, Prolactin, Testosteron, freien Testosteronen, SHBG und DHEAS im Serum diagnostiziert. Vor der Behandlung lagen die Testosteronwerte zwischen 0,4 und 1,65 ng/ml und die Insulinkonzentrationen betrugen von 25 bis 62 mcU/ml.
(§2) Als Opiat-Antagonist wurde Naltrexon (Ferring Arzneimittel GmbH, Kiel) in einer Dosis von 50 mg/Tag oral verabreicht. 4 Wochen nach Beginn der Naltrexon-Behandlung wurde nach dem gleichen Verfahren wie oben beschrieben ein zweiter oGTT durchgeführt und die Ergebnisse dieses Tests mit den vor Beginn der Behandlung erhaltenen Ergebnissen verglichen, wobei die Proben paarweise einem t-Test unterworfen wurden.
Im Gegensatz dazu blieben die Androgenkonzentrationen sowie die LH-, FSH- und Prolactin-Spiegel durch die Naltrexon-Behandlung unbeeinflußt.

[3] = oral glucose tolerance test (oGTT) before and after 4 weeks of treatment; format: in vivo, Frauen; conditions: 50 mg/Tag oral
Experimental: as §1
Die Insulinresistenz wurde durch orale Verabreichung von 400 ml einer Lösung nachgewiesen, welche eine Mono-Oligosaccharidmischung enthielt, die nach enzymatischer Hydrolyse im Gastrointestinaltrakt 100 g Glucose lieferte (Dextro-oGTT, Boehringer Mannheim). Während des oralen Glucose-Toleranz-Tests (oGTT) wurden vor der Kohlenhydratbelastung und danach 3 Stunden lang im Abstand von jeweils 15 Minuten Blutproben entnommen. In allen Proben wurde die Glucosekonzentration mit dem Hexokinase/Glucose-6-Phosphatdehydrogenase-Verfahren bestimmt. Ferner wurden die Insulin- und C-Peptidkonzentrationen mit handelsüblichen Radioimmun-Kits (Serono Diagnostic, Freiburg) bestimmt. Die Ergebnisse des oGTT wurden ausgewertet, indem das Verhältnis von Insulin zu Glucose berechnet wurde und die Flächen unter den Glucose-, Insulin- und C-Peptid-Kurven während des oGTT bestimmt wurden (vgl. Figur 1).
as §2

[4] = side effects / tolerability during treatment; format: in vivo, Frauen; conditions: 50 mg/Tag oral

For `O=C1CC[C@@]2(O)[C@H]3Cc4ccc(O)c5c4[C@@]2(CCN3CC2CC2)C1O5` (stereo partly drawn) [Naltrexon, 17-(Cyclopropylmethyl)-4,5-epoxy-3,14-dihydroxymorphinan-6-on], the “Verweildauer im Plasma” value [1] is listed as “lange”, the Androgenkonzentrationen [2] is listed as “unbeeinflußt” and the FSH-Spiegel [2] is listed as “unbeeinflußt”. The LH-Spiegel [2] was “unbeeinflußt”, the Prolactin-Spiegel [2] was “unbeeinflußt” and the “Verhältnis von Insulin zu Glucose” value ([3]; oGTT) was “sank”. For the same compound, the “molare Verhältnis von C-Peptid zu Insulin” value ([3]; oGTT) was “stieg”, the “Konzentration von C-Peptid” value ([3]; oGTT, reduced, but not to the same extent as insulin) was “reduziert” and the “Insulinspiegel nach Kohlenhydratbelastung” value ([3]; four insulin-resistant hyperandrogenaemic women, oGTT vs. before treatment) was “beeindruckende Senkung”. The “Veränderungen des Blutbildes, der Leberenzyme und des Nierenstatus” value [4] was “nicht beobachtet”, the Nebenwirkungen ([4]; one of four patients) was “Übelkeit mit Erbrechen und leichten Kopfschmerzen” and the Verträglichkeit ([4]; three of four patients) was “gut vertragen”.

From patent EP0541192A1, “Use of opiate antagonists for the treatment of endogen hyperinsulinemia” (Ferring Arzneimittel GmbH, priority 1991, dated 1993)
